Results published in ChEMBL document CHEMBL3390848, “Affinity selection and sequence-activity relationships of HIV-1 membrane fusion inhibitors directed at the drug-resistant variants” (Medchemcomm, 2010).
Residues, ends and D or L forms follow the SMILES beside them.

Legend:
[1] = system: Human immunodeficiency virus 1; assay: Thermal stability of HIV1 envelope glycoprotein gp41 His-tagged N-terminal heptad repeat N54-drug complex assessed as thermal unfolding transition state by measuring molar ellipticity at 4 to 90 degC by circular dichroic spectra analysis
[2] = system: Human immunodeficiency virus 1; assay: Binding affinity to HIV1 His-tagged N-terminal heptad repeat of envelope glycoprotein gp41 assessed as recovery of N54-drug complex after 2 hrs by LC-MS analysis; set-up: concentration or dose not given beside the values
[3] = system: Human immunodeficiency virus 1; assay: Antiviral activity against HIV1 NL4-3 harboring gp41 D36G mutant infected in human HeLa cells expressing CD4-LTR-beta-gal assessed as inhibition of viral replication after 48 hrs by MAGI assay; format: functional, organism-based

Compound	Tm [1] [°C]	Activity [2] [%]	EC50 [3] [nM]
CC[C@H](C)[C@H](NC(=O)[C@H](CC(C)C)NC(=O)[C@H](CCC(=O)O)NC(=O)[C@H](CCC(=O)O)NC(=O)[C@@H](NC(=O)[C@H](CC(C)C)NC(=O)[C@H](CO)NC(=O)[C@@H](NC(=O)[C@H](Cc1ccc(O)cc1)NC(C)=O)[C@@H](C)O)[C@@H](C)CC)C(=O)N[C@@H](CCCCN)C(=O)N[C@@H](CCCCN)C(=O)N[C@@H](CO)C(=O)N[C@@H](CCC(=O)O)C(=O)N[C@@H](CCC(=O)O)C(=O)N[C@@H](C)C(=O)N[C@@H](CCC(N)=O)C(=O)N[C@@H](CCCCN)C(=O)N[C@@H](CCCCN)C(=O)N[C@@H](CC(N)=O)C(=O)N[C@@H](CCC(=O)O)C(=O)N[C@@H](CCC(=O)O)C(=O)N[C@@H](CCC(=O)O)C(=O)N[C@@H](CC(C)C)C(=O)N[C@@H](CCCCN)C(=O)N[C@@H](CCCCN)C(=O)N[C@@H](CC(C)C)C(=O)N[C@@H](CCC(=O)O)C(=O)N[C@@H](CCC(=O)O)C(=O)N[C@@H](Cc1c[nH]c2ccccc12)C(=O)N[C@@H](C)C(=O)N[C@@H](CCCCN)C(=O)N[C@@H](CCCCN)C(=O)N[C@@H](Cc1c[nH]c2ccccc12)C(=O)N[C@@H](CC(N)=O)C(=O)N[C@@H](Cc1c[nH]c2ccccc12)C(=O)N[C@@H](Cc1ccccc1)C(N)=O (Ac-YTSLIEELIKKSEEAQKKNEEELKKLEEWAKKWNWF-NH2)	70.4	5.6	2.7
CC[C@H](C)[C@H](NC(=O)[C@H](CC(C)C)NC(=O)[C@H](CCC(=O)O)NC(=O)[C@H](CCC(=O)O)NC(=O)[C@@H](NC(=O)[C@H](CC(C)C)NC(=O)[C@H](CO)NC(=O)[C@@H](NC(=O)[C@H](Cc1ccc(O)cc1)NC(C)=O)[C@@H](C)O)[C@@H](C)CC)C(=O)N[C@@H](CCCCN)C(=O)N[C@@H](CCCCN)C(=O)N[C@H](C(=O)N[C@@H](CCC(=O)O)C(=O)N[C@@H](CCC(=O)O)C(=O)N[C@@H](CCC(N)=O)C(=O)N[C@@H](CCC(N)=O)C(=O)N[C@@H](CCCCN)C(=O)N[C@@H](CCCCN)C(=O)N[C@@H](CC(N)=O)C(=O)N[C@@H](CCC(=O)O)C(=O)N[C@@H](CCC(=O)O)C(=O)N[C@@H](CCC(=O)O)C(=O)N[C@@H](CC(C)C)C(=O)N[C@@H](CCCCN)C(=O)N[C@@H](CCCCN)C(=O)N[C@@H](CC(C)C)C(=O)N[C@@H](CCC(=O)O)C(=O)N[C@@H](CCC(=O)O)C(=O)N[C@@H](Cc1c[nH]c2ccccc12)C(=O)N[C@@H](C)C(=O)N[C@@H](CCCCN)C(=O)N[C@@H](CCCCN)C(=O)N[C@@H](Cc1c[nH]c2ccccc12)C(=O)N[C@@H](CC(N)=O)C(=O)N[C@@H](Cc1c[nH]c2ccccc12)C(=O)N[C@@H](Cc1ccccc1)C(N)=O)[C@@H](C)CC (Ac-YTSLIEELIKKIEEQQKKNEEELKKLEEWAKKWNWF-NH2)	79.7	10.4	0.4
CC[C@H](C)[C@H](NC(=O)[C@H](CC(C)C)NC(=O)[C@H](CCC(=O)O)NC(=O)[C@H](CCC(=O)O)NC(=O)[C@@H](NC(=O)[C@H](CC(C)C)NC(=O)[C@H](CO)NC(=O)[C@@H](NC(=O)[C@H](Cc1ccc(O)cc1)NC(C)=O)[C@@H](C)O)[C@@H](C)CC)C(=O)N[C@@H](CCCCN)C(=O)N[C@@H](CCCCN)C(=O)N[C@@H](CO)C(=O)N[C@@H](CCC(=O)O)C(=O)N[C@@H](CCC(=O)O)C(=O)N[C@@H](CC(N)=O)C(=O)N[C@@H](CCC(N)=O)C(=O)N[C@@H](CCCCN)C(=O)N[C@@H](CCCCN)C(=O)N[C@@H](CC(N)=O)C(=O)N[C@@H](CCC(=O)O)C(=O)N[C@@H](CCC(=O)O)C(=O)N[C@@H](CCC(=O)O)C(=O)N[C@@H](CC(C)C)C(=O)N[C@@H](CCCCN)C(=O)N[C@@H](CCCCN)C(=O)N[C@@H](CC(C)C)C(=O)N[C@@H](CCC(=O)O)C(=O)N[C@@H](CCC(=O)O)C(=O)N[C@@H](Cc1c[nH]c2ccccc12)C(=O)N[C@@H](C)C(=O)N[C@@H](CCCCN)C(=O)N[C@@H](CCCCN)C(=O)N[C@@H](Cc1c[nH]c2ccccc12)C(=O)N[C@@H](CC(N)=O)C(=O)N[C@@H](Cc1c[nH]c2ccccc12)C(=O)N[C@@H](Cc1ccccc1)C(N)=O (Ac-YTSLIEELIKKSEENQKKNEEELKKLEEWAKKWNWF-NH2)	69	4.4	3.6
CC[C@H](C)[C@H](NC(=O)[C@H](CC(C)C)NC(=O)[C@H](CCC(=O)O)NC(=O)[C@H](CCC(=O)O)NC(=O)[C@@H](NC(=O)[C@H](CC(C)C)NC(=O)[C@H](CO)NC(=O)[C@@H](NC(=O)[C@H](Cc1ccc(O)cc1)NC(C)=O)[C@@H](C)O)[C@@H](C)CC)C(=O)N[C@@H](CCCCN)C(=O)N[C@@H](CCCCN)C(=O)N[C@@H](CO)C(=O)N[C@@H](CCC(=O)O)C(=O)N[C@@H](CCC(=O)O)C(=O)N[C@@H](CCSC)C(=O)N[C@@H](CCC(N)=O)C(=O)N[C@@H](CCCCN)C(=O)N[C@@H](CCCCN)C(=O)N[C@@H](CC(N)=O)C(=O)N[C@@H](CCC(=O)O)C(=O)N[C@@H](CCC(=O)O)C(=O)N[C@@H](CCC(=O)O)C(=O)N[C@@H](CC(C)C)C(=O)N[C@@H](CCCCN)C(=O)N[C@@H](CCCCN)C(=O)N[C@@H](CC(C)C)C(=O)N[C@@H](CCC(=O)O)C(=O)N[C@@H](CCC(=O)O)C(=O)N[C@@H](Cc1c[nH]c2ccccc12)C(=O)N[C@@H](C)C(=O)N[C@@H](CCCCN)C(=O)N[C@@H](CCCCN)C(=O)N[C@@H](Cc1c[nH]c2ccccc12)C(=O)N[C@@H](CC(N)=O)C(=O)N[C@@H](Cc1c[nH]c2ccccc12)C(=O)N[C@@H](Cc1ccccc1)C(N)=O (Ac-YTSLIEELIKKSEEMQKKNEEELKKLEEWAKKWNWF-NH2)	74.6	9.2	0.9
CC[C@H](C)[C@H](NC(=O)[C@H](CCC(=O)O)NC(=O)[C@H](CCC(=O)O)NC(=O)[C@H](CO)NC(=O)[C@H](CCCCN)NC(=O)[C@H](CCCCN)NC(=O)[C@@H](NC(=O)[C@H](CC(C)C)NC(=O)[C@H](CCC(=O)O)NC(=O)[C@H](CCC(=O)O)NC(=O)[C@@H](NC(=O)[C@H](CC(C)C)NC(=O)[C@H](CO)NC(=O)[C@@H](NC(=O)[C@H](Cc1ccc(O)cc1)NC(C)=O)[C@@H](C)O)[C@@H](C)CC)[C@@H](C)CC)C(=O)N[C@@H](CCC(N)=O)C(=O)N[C@@H](CCCCN)C(=O)N[C@@H](CCCCN)C(=O)N[C@@H](CC(N)=O)C(=O)N[C@@H](CCC(=O)O)C(=O)N[C@@H](CCC(=O)O)C(=O)N[C@@H](CCC(=O)O)C(=O)N[C@@H](CC(C)C)C(=O)N[C@@H](CCCCN)C(=O)N[C@@H](CCCCN)C(=O)N[C@@H](CC(C)C)C(=O)N[C@@H](CCC(=O)O)C(=O)N[C@@H](CCC(=O)O)C(=O)N[C@@H](Cc1c[nH]c2ccccc12)C(=O)N[C@@H](C)C(=O)N[C@@H](CCCCN)C(=O)N[C@@H](CCCCN)C(=O)N[C@@H](Cc1c[nH]c2ccccc12)C(=O)N[C@@H](CC(N)=O)C(=O)N[C@@H](Cc1c[nH]c2ccccc12)C(=O)N[C@@H](Cc1ccccc1)C(N)=O (Ac-YTSLIEELIKKSEEIQKKNEEELKKLEEWAKKWNWF-NH2)	74	10.4	0.8
CC[C@H](C)[C@H](NC(=O)[C@H](CC(C)C)NC(=O)[C@H](CCC(=O)O)NC(=O)[C@H](CCC(=O)O)NC(=O)[C@@H](NC(=O)[C@H](CC(C)C)NC(=O)[C@H](CO)NC(=O)[C@@H](NC(=O)[C@H](Cc1ccc(O)cc1)NC(C)=O)[C@@H](C)O)[C@@H](C)CC)C(=O)N[C@@H](CCCCN)C(=O)N[C@@H](CCCCN)C(=O)N[C@@H](CO)C(=O)N[C@@H](CCC(=O)O)C(=O)N[C@@H](CCC(=O)O)C(=O)N1CCC[C@H]1C(=O)N[C@@H](CCC(N)=O)C(=O)N[C@@H](CCCCN)C(=O)N[C@@H](CCCCN)C(=O)N[C@@H](CC(N)=O)C(=O)N[C@@H](CCC(=O)O)C(=O)N[C@@H](CCC(=O)O)C(=O)N[C@@H](CCC(=O)O)C(=O)N[C@@H](CC(C)C)C(=O)N[C@@H](CCCCN)C(=O)N[C@@H](CCCCN)C(=O)N[C@@H](CC(C)C)C(=O)N[C@@H](CCC(=O)O)C(=O)N[C@@H](CCC(=O)O)C(=O)N[C@@H](Cc1c[nH]c2ccccc12)C(=O)N[C@@H](C)C(=O)N[C@@H](CCCCN)C(=O)N[C@@H](CCCCN)C(=O)N[C@@H](Cc1c[nH]c2ccccc12)C(=O)N[C@@H](CC(N)=O)C(=O)N[C@@H](Cc1c[nH]c2ccccc12)C(=O)N[C@@H](Cc1ccccc1)C(N)=O (Ac-YTSLIEELIKKSEEPQKKNEEELKKLEEWAKKWNWF-NH2)	52	0.3	> 1000
CC[C@H](C)[C@H](NC(=O)[C@H](CC(C)C)NC(=O)[C@H](CCC(=O)O)NC(=O)[C@H](CCC(=O)O)NC(=O)[C@@H](NC(=O)[C@H](CC(C)C)NC(=O)[C@H](CO)NC(=O)[C@@H](NC(=O)[C@H](Cc1ccc(O)cc1)NC(C)=O)[C@@H](C)O)[C@@H](C)CC)C(=O)N[C@@H](CCCCN)C(=O)N[C@@H](CCCCN)C(=O)N[C@@H](CO)C(=O)N[C@@H](CCC(=O)O)C(=O)N[C@@H](CCC(=O)O)C(=O)N[C@@H](Cc1c[nH]c2ccccc12)C(=O)N[C@@H](CCC(N)=O)C(=O)N[C@@H](CCCCN)C(=O)N[C@@H](CCCCN)C(=O)N[C@@H](CC(N)=O)C(=O)N[C@@H](CCC(=O)O)C(=O)N[C@@H](CCC(=O)O)C(=O)N[C@@H](CCC(=O)O)C(=O)N[C@@H](CC(C)C)C(=O)N[C@@H](CCCCN)C(=O)N[C@@H](CCCCN)C(=O)N[C@@H](CC(C)C)C(=O)N[C@@H](CCC(=O)O)C(=O)N[C@@H](CCC(=O)O)C(=O)N[C@@H](Cc1c[nH]c2ccccc12)C(=O)N[C@@H](C)C(=O)N[C@@H](CCCCN)C(=O)N[C@@H](CCCCN)C(=O)N[C@@H](Cc1c[nH]c2ccccc12)C(=O)N[C@@H](CC(N)=O)C(=O)N[C@@H](Cc1c[nH]c2ccccc12)C(=O)N[C@@H](Cc1ccccc1)C(N)=O (Ac-YTSLIEELIKKSEEWQKKNEEELKKLEEWAKKWNWF-NH2)	68.8	8.1	2.5
